In ChEMBL document CHEMBL1201862, “PubChem BioAssay data set” (2004):
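Following 48 hours of exposure in 96-well plates, responses at five concentrations were used to interpolate endpoints linearly. Here, GI50 denotes the concentration required for 50% inhibition of growth.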 Activity calls are given as the source filed them. Rule as the data show it: active = GI50 up to about 1.1 µM and inactive = higher.

Legend:
Experiment in all cases: NCI anticancer screen, dose series, 48 h
[1] = system: 786-0
[2] = system: A498
[3] = system: A549
[4] = system: ACHN
[5] = system: BT-549
[6] = system: CCRF-CEM
[7] = system: COLO 205
[8] = system: DU-145
[9] = system: EKVX
[10] = system: HCC 2998
[11] = system: HCT-116
[12] = system: HCT-15
[13] = system: HL-60
[14] = system: HOP-62
[15] = system: HOP-92
[16] = system: HT-29
[17] = system: IGROV-1
[18] = system: K562
[19] = system: LOX IMVI
[20] = system: M14
[21] = system: MCF7
[22] = system: MDA-MB-231
[23] = system: MDA-MB-435
[24] = system: MDA-N
[25] = system: MOLT-4
[26] = system: Malme-3M
[27] = system: NCI-H226
[28] = system: NCI-H23
[29] = system: NCI-H460
[30] = system: NCI/ADR-RES
[31] = system: OVCAR-3
[32] = system: OVCAR-4
[33] = system: OVCAR-5
[34] = system: OVCAR-8
[35] = system: PC-3
[36] = system: RPMI-8226
[37] = system: SF-268
[38] = system: SF-295
[39] = system: SK-MEL-28
[40] = system: SK-MEL-5
[41] = system: SK-OV-3
[42] = system: SN12C
[43] = system: SNB-19
[44] = system: SNB-75
[45] = system: SR
[46] = system: SW-620
[47] = system: T47D
[48] = system: TK-10
[49] = system: U-251
[50] = system: UACC-257
[51] = system: UACC-62
[52] = system: UO-31
[53] = system: CAKI-1
[54] = system: Hs-578T
[55] = system: KM12
[56] = system: NCI-H522
[57] = system: RXF 393
[58] = system: SF-539
[59] = system: SK-MEL-2

Measured: GI50

CN(C)CCN(C)P12(Oc3ccccc3O1)Oc1c(Cl)c(Cl)c(Cl)c(Cl)c1O2
inactive: [1] 54.6 µM | [2] 60.5 µM | [3] 46.9 µM | [4] 39.8 µM | [5] 56.4 µM | [6] 29 µM | [7] > 100 µM | [8] 85.5 µM | [9] 99.8 µM | [10] > 100 µM | [11] 33.2 µM | [13] 18.8 µM | [14] 45 µM | [15] 22.1 µM | [16] 43.8 µM | [17] 45.4 µM | [18] 35.6 µM | [19] 63 µM | [20] 50.5 µM | [21] 33.7 µM | [22] 69.8 µM | [23] 50.9 µM | [24] 48.4 µM | [25] 34 µM | [26] 46.6 µM | [27] > 100 µM | [28] 35.8 µM | [29] 37.2 µM | [30] 35.8 µM | [31] 27.9 µM | [32] 33.5 µM | [33] 46.1 µM | [34] 40.7 µM | [35] 33.7 µM | [36] 29.1 µM | [37] 36.1 µM | [38] 37.1 µM | [39] > 100 µM | [40] 58.6 µM | [41] > 100 µM | [42] 42.6 µM | [43] 56.6 µM | [44] 13.7 µM | [45] 35.2 µM | [46] 47.4 µM | [47] 59.8 µM | [48] > 100 µM | [49] 56.5 µM | [50] 29.5 µM | [51] 33.3 µM | [52] 39.1 µM
40 µM: [12]

O=C(CSc1nc2ccc(I)cc2c(=O)n1Cc1ccccc1)Nc1ccc(Br)cc1
active: [52] 0.114 µM
36 µM: [12]
inactive: [1] 58.6 µM | [2] 22.5 µM | [3] > 100 µM | [4] > 100 µM | [5] 37.1 µM | [53] 1.35 µM | [6] > 100 µM | [7] 59.4 µM | [8] 70.5 µM | [9] 12.9 µM | [11] 88.5 µM | [13] > 100 µM | [14] 78.2 µM | [15] 60.3 µM | [16] > 100 µM | [54] 17.8 µM | [17] 29.2 µM | [18] 24.7 µM | [55] 78.7 µM | [19] > 100 µM | [20] 56.5 µM | [21] > 100 µM | [22] 17.2 µM | [23] > 100 µM | [25] > 100 µM | [26] 16.6 µM | [27] 25.9 µM | [28] > 100 µM | [56] 46.7 µM | [30] 51.9 µM | [31] 63 µM | [32] 34.7 µM | [33] 44.5 µM | [34] 13.4 µM | [35] 17.5 µM | [36] > 100 µM | [57] 43.9 µM | [37] 12.2 µM | [38] 35.6 µM | [58] 2.32 µM | [39] 49.4 µM | [59] 64.1 µM | [40] 43.2 µM | [41] > 100 µM | [42] 37.2 µM | [43] 68.1 µM | [44] 13.8 µM | [45] 11.3 µM | [46] 97.5 µM | [47] 97.9 µM | [49] 39 µM | [51] > 100 µM
